Laboratory results from US20150315188A1, “COMPOUNDS AND METHODS FOR TREATMENT OF HYPERTENSION” (MEDIVATION TECHNOLOGIES, INC., priority 2012, published 2015).

Experiments:
[1] = target: T1, rat adrenergic α1B receptor (Rattus norvegicus, UniProt P15823); assay: Radioligand binding, adrenergic α1B (Protocol Group A); details: 0.1 μM compound, [3H]Prazosin; for inhibition at 0.1 µM: read-out: percent inhibition of specific binding, Adrenergic α1B; for percent inhibition of specific binding, Adrenergic α1B: 0.1 µM
T1 construct: rat adrenergic α1B receptor obtained from Wistar Rat liver; from tissue; host or cells: Wistar rat liver
T1 sequence (P15823 1-515): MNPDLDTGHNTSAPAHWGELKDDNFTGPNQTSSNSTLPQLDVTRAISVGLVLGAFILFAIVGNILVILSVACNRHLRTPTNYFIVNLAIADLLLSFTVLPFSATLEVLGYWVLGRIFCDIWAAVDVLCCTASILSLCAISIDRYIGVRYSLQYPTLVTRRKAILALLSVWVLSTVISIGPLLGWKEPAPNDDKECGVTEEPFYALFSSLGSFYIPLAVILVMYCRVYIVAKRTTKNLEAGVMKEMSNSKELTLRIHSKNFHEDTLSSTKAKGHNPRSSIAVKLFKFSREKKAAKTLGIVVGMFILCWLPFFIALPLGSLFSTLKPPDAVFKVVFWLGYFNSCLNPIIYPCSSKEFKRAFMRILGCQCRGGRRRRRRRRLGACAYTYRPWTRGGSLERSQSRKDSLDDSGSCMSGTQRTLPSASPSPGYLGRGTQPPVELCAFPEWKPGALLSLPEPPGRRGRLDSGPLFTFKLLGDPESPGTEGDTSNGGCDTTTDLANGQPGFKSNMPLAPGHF
Protocol: To evaluate in radioligand binding assays the activity of compounds of the invention, rat adrenergic α1B receptor obtained from Wistar Rat liver (Garcia-S'ainz, J. et al, Biochem. Biophys. Res. Commun. 186:760, 1992; Michel, A. et al, Br. J. Pharmacol. 98:883, 1989) in a modified Tris-HCl buffer (50 mM Tris-HCl buffer, pH 7.4, 0.5 mM EDTA) was used. Compounds of the invention were incubated with 0.25 nM [^3H]Prazosin for 60 min at 25° C. Non-specific binding was estimated in the presence of 10 μM phentolamine. Receptor proteins were filtered and washed, the filters were then counted to determine [^3H]Prazosin specifically bound. Compounds were screened at 1 μM or lower, using 1% DMSO as vehicle. Compounds of the invention were tested in this biochemical assay and percent inhibition of specific binding was determined. Biochemical assay results are presented as the percent inhibition of specific binding in Table B1a.

[2] = target: T2, Human adrenergic α2B receptor (Homo sapiens, UniProt P18089); assay: Radioligand binding, adrenergic α2B (Protocol Group A); parameters: expressed in transfected cells; host or cells: CHO-K1; details: 0.03 μM compound, [3H]Rauwolscine; for inhibition at 0.03 µM: read-out: percent inhibition of specific binding, Adrenergic α2B; for percent inhibition of specific binding, Adrenergic α2B: 0.03 µM
T2 sequence (P18089 1-450): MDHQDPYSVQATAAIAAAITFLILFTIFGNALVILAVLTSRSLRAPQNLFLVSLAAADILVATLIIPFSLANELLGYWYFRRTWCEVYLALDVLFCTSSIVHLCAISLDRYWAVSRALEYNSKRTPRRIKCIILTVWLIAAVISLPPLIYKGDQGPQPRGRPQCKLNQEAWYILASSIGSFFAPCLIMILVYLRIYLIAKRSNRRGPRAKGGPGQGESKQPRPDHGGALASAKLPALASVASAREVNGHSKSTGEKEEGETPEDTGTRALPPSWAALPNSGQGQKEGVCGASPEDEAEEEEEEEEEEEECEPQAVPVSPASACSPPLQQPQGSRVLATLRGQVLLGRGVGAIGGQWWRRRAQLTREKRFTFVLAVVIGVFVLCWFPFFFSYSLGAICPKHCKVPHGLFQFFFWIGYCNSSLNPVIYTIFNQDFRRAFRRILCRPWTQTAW
Protocol: To evaluate in radioligand binding assays the activity of compounds of the invention, human recombinant adrenergic α2B receptor expressed in Chinese hamster ovary (CHO) K1 cells (Uhlen, S. et al, Eur. J. Pharmacol. 343(1):93, 1998) in a modified Tris-HCl buffer (50 mM Tris-HCl, pH 7.4, 12.5 mM MgCl2, 1 mM EDTA, 0.2% BSA) was used. Compounds of the invention were incubated with 2.5 nM [3H]Rauwolscine for 60 min at 25° C. Non-specific binding was estimated in the presence of 10 μM Prazosin. Receptor proteins were filtered and washed, the filters were then counted to determine [3H]Rauwolscine specifically bound. Compounds were screened at 1 μM or lower, using 1% DMSO as vehicle. Compounds of the invention were tested in this biochemical assay and percent inhibition of specific binding was determined. Biochemical assay results are presented as the percent inhibition of specific binding in Table B1a.

[3] = target: T3, Human adrenergic α2A receptor (Homo sapiens, UniProt P08913); assay: Radioligand binding, adrenergic α2A (Protocol Group A); parameters: expressed in transfected cells; host or cells: insect Sf9 cells; details: 0.1 μM compound; for inhibition at 0.1 µM: [3H]MK-912, read-out: percent inhibition of specific binding, Adrenergic α2A; for percent inhibition of specific binding, Adrenergic α2A: [3H]MK-912, 0.1 µM
T3 sequence (P08913 1-465): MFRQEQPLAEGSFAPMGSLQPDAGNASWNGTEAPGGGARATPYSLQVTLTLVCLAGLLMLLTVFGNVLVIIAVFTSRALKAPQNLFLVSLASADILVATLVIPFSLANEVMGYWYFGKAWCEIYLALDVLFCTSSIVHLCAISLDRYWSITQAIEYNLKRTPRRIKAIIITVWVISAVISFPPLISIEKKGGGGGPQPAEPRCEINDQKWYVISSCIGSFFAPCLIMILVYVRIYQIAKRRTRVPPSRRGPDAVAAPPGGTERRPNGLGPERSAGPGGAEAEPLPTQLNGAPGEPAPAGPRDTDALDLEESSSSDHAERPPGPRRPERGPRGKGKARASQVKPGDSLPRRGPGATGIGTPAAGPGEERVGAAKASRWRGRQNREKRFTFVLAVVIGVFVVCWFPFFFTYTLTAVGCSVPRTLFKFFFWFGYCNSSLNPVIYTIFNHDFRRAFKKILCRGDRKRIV
Protocol: To evaluate in radioligand binding assays the activity of compounds of the invention, human recombinant adrenergic α2A receptor expressed in insect Sf9 cells (Uhlen, S. et al, J. Pharmacol. Exp. Ther. 271:1558, 1994) in a modified Tris-HCl buffer (50 mM Tris-HCl, pH 7.4, 12.5 mM MgCl2, 2 mM EDTA) was used. Compounds of invention were incubated with 1 nM [^3H]MK-912 for 60 min at 25° C. MK912 is (2S-trans)-1,3,4,5′,6,6′,7,12b-octahydro-1′,3′-dimethyl-spiro[2H-benzofuro[2,3-a]quinolizine-2,4′(1′H)-pyrimidin]-2′(3′H)-one hydrochloride. Non-specific binding was estimated in the presence of 10 μM WB-4101 (2-(2,6-Dimethoxyphenoxyethyl)aminomethyl-1,4-benzodioxane hydrochloride). Receptor proteins were filtered and washed, the filters were then counted to determine [^3H]MK-912 specifically bound. Compounds were screened at 1 μM or lower, using 1% DMSO as vehicle. Compounds of the invention were tested in this biochemical assay and percent inhibition of specific binding was determined. Biochemical assay results are presented as the percent inhibition of specific binding in Table B1a.

| inhibition at 0.1 µM [1] [%] | inhibition at 0.03 µM [2] [%] | inhibition at 0.1 µM [3] [%] | percent inhibition of specific binding, Adrenergic α1B [1] [%] | percent inhibition of specific binding, Adrenergic α2B [2] [%] | percent inhibition of specific binding, Adrenergic α2A [3] [%] | SMILES |
| --- | --- | --- | --- | --- | --- | --- |
| 18 | 64 | 3 |  |  |  | Cc1ccc2c(c1)c1c(n2CCc2cncc(S(C)(=O)=O)c2)CCN(C)C1 [Compound No. 1, 2,8-dimethyl-5-(2-(5-(methylsulfonyl)pyridin-3-yl)ethyl)-2,3,4,5-tetrahydro-1H-pyrido[4,3-b]indole] |
| 99 | 108 | 93 |  |  |  | Cc1ccc2c(c1)c1c(n2/C=C/c2ccncc2)CCN2CCCC12 (stereo not drawn) [Compound No. 7, (E)-10-methyl-7-(2-(pyridin-4-yl)vinyl)-2,3,5,6,7,11c-hexahydro-1H-indolizino[7,8-b]indole] |
|  |  |  | −3 | 4 | 0 | Cc1ccc(C(F)Cn2c3c(c4cccnc42)C2CCCN2CC3)cn1 (single isomer, unassigned) [10a] |
| 1 | 42 | 11 |  |  |  | Cc1ccc2c(c1)c1c(n2CC(OC(N)=O)c2ccncc2)CCN(C)C1 (stereo not drawn) [compound 8, 2-(2,8-dimethyl-3,4-dihydro-1H-pyrido[4,3-b]indol-5 (2H)-yl)-1-(pyridin-4-yl)ethyl carbamate] |
| 77 | 107 | 85 |  |  |  | Cc1ccc2c(c1)c1c(n2C(CC(C)(C)C)C(=O)c2ccncc2)CCN(C)C1 (stereo not drawn) [compound 9, 2-(2,8-dimethyl-3,4-dihydro-1H-pyrido[4,3-b]indol-5 (2H)-yl)-4,4-dimethyl-1-(pyridin-4-yl)pentan-1-one] |
|  |  |  | 27 | 78 | 33 | Cc1ccc2c(c1)c1c(n2CC(OC(=O)N2CCCC2)c2ccncc2)CCN(C)C1 (stereo not drawn) [compound 4, 2-(2,8-dimethyl-3,4-dihydro-1H-pyrido[4,3-b]indol-5(2H)-yl)-1-(pyridin-4-yl)ethyl pyrrolidine-1-carboxylate] |
|  |  |  | −5 | 16 | −1 | Cc1ccc(C(F)Cn2c3c(c4cccnc42)C2CCCN2CC3)cn1 (single isomer, unassigned) [10b] |
| 5 | 13 | 10 |  |  |  | Cc1ccc2c(c1)c1c(n2CC(OC(=O)N2CCN(C)CC2)c2ccncc2)CCN(C)C1 (stereo not drawn) [compound 5, 2-(2,8-dimethyl-3,4-dihydro-1H-pyrido[4,3-b]indol-5 (2H)-yl)-1-(pyridin-4-yl)ethyl 4-methylpiperazine-1-carboxylate] |
|  |  | 21 | 11 | 39 |  | Cc1ccc2c(c1)c1c(n2CC(OC(=O)N2CCCC2)c2ccncc2)CCN(C)C1 (single isomer, unassigned) [4a] |
| -5 | 7 | 5 |  |  |  | Cc1ccc2c(c1)c1c(n2CC(OCCCC(=O)O)c2ccncc2)CCN(C)C1 (stereo not drawn) [compound 3, 4-(2-(2,8-dimethyl-3,4-dihydro-1H-pyrido[4,3-b]indol-5 (2H)-yl)-1-(pyridin-4-yl)ethoxy)butanoic acid] |
| 61 | 93 | 29 |  |  |  | Cc1ccc2c(c1)c1c(n2CC(C)(O)c2ccc(F)nc2)CCN2CCCC12 (stereo not drawn) [6b] |

| SMILES | inhibition at 0.1 µM [1] [%] | inhibition at 0.03 µM [2] [%] | inhibition at 0.1 µM [3] [%] | percent inhibition of specific binding, Adrenergic α1B [1] [%] | percent inhibition of specific binding, Adrenergic α2B [2] [%] | percent inhibition of specific binding, Adrenergic α2A [3] [%] |
| --- | --- | --- | --- | --- | --- | --- |
| c1cncc(CCn2c3c(c4ccccc42)C2CCCN2CC3)c1 (single isomer, unassigned) [2a] |  |  |  | 28 | 102 | 31 |
| c1cncc(CCn2c3c(c4ccccc42)C2CCCN2CC3)c1 (single isomer, unassigned) [2b] |  |  |  | 4 | 1 | 13 |
